Laboratory results as given in patent US10906905B2, “Five-membered heteroaryl ring bridged ring derivative, preparation method therefor and medical use thereof” (Jiangsu Hengrui Medicine Co., Ltd., priority 2016, dated 2021).

Assay: Pharmacokinetics assay in rats after intragastrical administration
Assay type: in vivo
Conditions: both sexes, Sprague-Dawley, rat, plasma, po, SD rats, 2 mg/kg; for Vd/F: read-out: Apparent distribution volume Vz/F; for AUC: read-out: Area under curve AUC; for CL/F: read-out: Clearance CLz/F; for half-life: read-out: Half-life T1/2 (converted); for Cmax: read-out: Plasma concentration Cmax; for MRT: read-out: Residence time MRT
Description: Rats were used as test animals. The drug concentration in plasma at different time points was determined by LC/MS/MS method after intragastrical administration of the compounds of Examples 1-1, 1-2, 2-1, 3-1, the compound with retention time of 6.631 minutes among Examples 9-1 and 9-2, and the compounds of Examples 33 and 39-1 to rats. The pharmacokinetic behavior of the compounds of the present invention was studied and evaluated in rats.
Compounds of Examples 1-1, 1-2, 2-1, 3-1, compound with retention time of 6.631 minutes among Examples 9-1 and 9-2, and compounds of Examples 33 and 39-1.
Twenty-eight healthy adult Sprague-Dawley (SD) rats (half male and half female) were purchased from SINO-BRITISH SIPPR/BK LAB. ANIMAL LTD., CO, with Certificate No.: SCXK (Shanghai) 2008-0016, and equally divided into 7 groups (4 rats per group).
A certain amount of the test compound was weighed, and added with 5% by volume of DMSO, 5% by volume of Tween 80, and 90% by volume of physiological saline were added to prepare a 0.2 mg/mL colorless, clear and transparent solution.
After an overnight fast, SD rats were administered intragastrically the test compounds at an administration dosage of 2.0 mg/kg and an administration volume of 10.0 mL/kg.
The rats were intragastrically administered the compounds of Examples 1-1, 1-2, 2-1, 3-1, the compound with retention time of 6.631 minutes among Examples 9-1 and 9-2, and the compounds of Examples 33 and 39-1.0.2 mL of blood was taken from the orbital sinus before administration and at 0.5, 1.0, 2.0, 4.0, 6.0, 8.0, 11.0 and 24.0 hours after administration. The samples were stored in heparinized tubes, and centrifuged for 10 minutes at 4° C. at 3,500 rpm to separate the blood plasma. The plasma samples were stored at −20° C. The rats were fed 2 hours after administration.
The content of the test compounds in the plasma of rats after intragastrical administration of the test compounds at different concentrations was determined: 25 μL of rat plasma at each time after administration was taken, added with 50 μL (100 ng/mL) of the internal standard solution of camptothecin and 175 μL of acetonitrile, shaken vertically for 5 minutes, and centrifuged for 10 minutes (4000 rpm). 3.0 μL of the supernatant was taken from the plasma samples for LC/MS/MS analysis.

Vd/F	AUC	CL/F	half-life	Cmax	MRT	Compound
23.5 ± 19.4 L/kg	637 ± 355 ng·h/mL	68.6 ± 39.2 mL/min/kg	3.42 ± 1.29 h	208 ± 61 ng/mL	3.88 ± 0.26 h	Cc1cccc(-c2nc3n(c2-c2ccc4nccc(C(N)=O)c4c2)[C@H]2CC[C@@H]3C2)n1 [Example 1-1, 6-((5S,8R)-2-(6-Methylpyridin-2-yl)-5,6,7,8-tetrahydro-5,8-methanoimidazo[1,2-a]pyridin-3-yl)quinoline-4-carboxamide]
7.8 ± 1.33 L/kg	664 ± 93 ng·h/mL	50.8 ± 7.2 mL/min/kg	1.77 ± 0.2 h	351 ± 52 ng/mL	2.3 ± 0.37 h	Cc1cccc(-c2nc3n(c2-c2ccc4nnc(C(N)=O)n4c2)[C@H]2CC[C@@H]3C2)n1 [Example 2-1, 6-((5S,8R)-2-(6-Methylpyridin-2-yl)-5,6,7,8-tetrahydro-5,8-methanoimidazo[1,2-a]pyridin-3-yl)[1,2,4]triazolo[4,3-a]pyridine-3-carboxamide]
3.3 ± 1.1 L/kg	800 ± 208 ng·h/mL	43.4 ± 10.4 mL/min/kg	0.868 ± 0.1 h	502 ± 128 ng/mL	1.43 ± 0.06 h	Cc1cccc(-c2nc3n(c2-c2ccnc(-c4ccc(S(C)(=O)=O)cc4)c2)[C@H]2CC[C@@H]3C2)n1 [Example 3-1, (5S,8R)-2-(6-Methylpyridin-2-yl)-3-(2-(4-(methylsulfonyl)phenyl)pyridin-4-yl)-5,6,7,8-tetrahydro-5,8-methanoimidazo[1,2-a]pyridine]
18.3 ± 17.4 L/kg	689 ± 609 ng·h/mL	121 ± 116 mL/min/kg	2.06 ± 0.86 h	317 ± 269 ng/mL	2.44 ± 1.16 h	NC(=O)c1ccnc2ccc(-c3c(-c4ccc(F)cn4)nc4n3[C@H]3CC[C@@H]4C3)cc12 [Example 39-1, 6-((5S,8R)-2-(5-Fluoropyridin-2-yl)-5,6,7,8-tetrahydro-5,8-methanoimidazo[1,2-a]pyridin-3-yl)quinoline-4-carboxamide]
